Test system: HCV genotype-1a variant with glutamine 30 changed to glutamate in the NS5A protein
Format: cell-based
Settings: test compound titrated with BMS-790052 fixed at 200 nM; genotype 1a Q30E replicon
Outline: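 Synergy was assessed by combining several fixed amounts of an NS5A-targeting compound with a titration of the second compound of interest.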

Row | Compound | Fold-Synergistic 1a (Q30E) [fold]
1 | CC(C)(C)C(NC(=O)C1(O)CCCC1)c1nc(-c2ccc(-c3ccc(-c4c[nH]c(C(NC(=O)C5(O)CCCC5)C(C)(C)C)n4)cc3)cc2)c[nH]1 [Compound L-73] | >100
2 | CC(C)[C@H](NC(=O)C1CCC(F)(F)CC1)c1ncc(-c2ccc(-c3ccc(-c4cnc([C@@H](NC(=O)C5CCC(F)(F)CC5)C(C)(C)C)[nH]4)cc3)cc2)[nH]1 [Compound Y-42] | >100
3 | CC(C)(C)[C@H](NC(=O)[C@@]1(C)CCC(F)(F)CO1)c1ncc(-c2ccc(C34CCC(c5cnc([C@@H](NC(=O)[C@@]6(C)CCC(F)(F)CO6)C(C)(C)C)[nH]5)(CC3)CC4)cc2)[nH]1 [Compound B-186, (R)—N—((S)-1-(5-(4-(4-(2-((S)-1-((R)-5,5-difluoro-2-methyltetrahydro-2H-pyran-2-carboxamido)-2,2-dimethylpropyl)-1H-imidazol-5-yl)bicyclo[2.2.2]octan-1-yl)phenyl)-1H-imidazol-2-yl)-2,2-dimethylpropyl)-5,5-difluoro-2-methyltetrahydro-2H-pyran-2-carboxamide] | >100
4 | COc1cnc(C(=O)N2CCC[C@H]2c2ncc(-c3ccc(-c4ccc(-c5cnc([C@@H]6CCCN6C(=O)c6ncc(OC)c7ccccc67)[nH]5)cc4)cc3)[nH]2)c2ccccc12 [Compound S-199] | >100
5 | CC(C)(C)[C@H](NC(=O)C(=O)N1CCCC1)c1nc(-c2ccc(-c3ccc(-c4c[nH]c([C@@H](NC(=O)C(=O)N5CCCC5)C(C)(C)C)n4)cc3)cc2)c[nH]1 [Compound W-21] | >100
6 | CC(C)[C@H](NC(=O)c1ccno1)c1ncc(-c2ccc(-c3ccc(-c4cnc([C@@H](NC(=O)c5ccno5)C(C)C)[nH]4)cc3)cc2)[nH]1 [Compound S-100] | >100
7 | CC1([C@H](NC(=O)C(O)(CF)CF)c2nc(-c3ccc(-c4ccc(-c5c[nH]c([C@@H](NC(=O)C(O)(CF)CF)C6(C)CC6)n5)cc4)cc3)c[nH]2)CC1 [Compound N-141] | >100
8 | CC(C)[C@H](NC(=O)C(C)(C)F)c1ncc(-c2ccc(-c3ccc(-c4cnc([C@@H](NC(=O)C(C)(C)F)C(C)(C)C)[nH]4)cc3)cc2)[nH]1 [Compound Y-48] | >100
9 | CC(C)(C)[C@H](Nc1nc(Cl)c(Cl)s1)c1nc(-c2ccc(-c3ccc(-c4c[nH]c([C@@H](Nc5nc(Cl)c(Cl)s5)C(C)(C)C)n4)cc3)cc2)c[nH]1 [Compound W-179] | >10
10 | CC(C)(C)OC(=O)NC1CCCCC1C(=O)N[C@H](c1nc(-c2ccc(-c3ccc(-c4c[nH]c([C@@H](NC(=O)C5CCCCC5NC(=O)OC(C)(C)C)C(C)(C)C)n4)cc3)cc2)c[nH]1)C(C)(C)C (single isomer, unassigned) [Compound W-23A] | >100
11 | CC(C)[C@H](NC(=O)C(C)(C)Oc1ccc(Cl)cc1)c1ncc(-c2ccc(-c3ccc(-c4cnc([C@@H](NC(=O)C(C)(C)Oc5ccc(Cl)cc5)C(C)C)[nH]4)cc3)cc2)[nH]1 [Compound P-65] | >100
12 | CC(C)[C@H](NC(=O)C(C)(C)O)c1ncc(-c2ccc(-c3ccc(-c4cnc([C@@H](NC(=O)C(C)(C)O)C(C)C)[nH]4)cc3)cc2)[nH]1 [Compound P-71] | >100
13 | CC(C)(C)OC(=O)NC1(C(=O)N[C@H](c2nc(-c3ccc(-c4ccc(-c5c[nH]c([C@@H](NC(=O)C6(NC(=O)OC(C)(C)C)CCOCC6)C(C)(C)C)n5)cc4)cc3)c[nH]2)C(C)(C)C)CCOCC1 [Compound W-132] | >100
14 | CC(C)[C@H](NC(=O)c1cccc(F)c1)c1ncc(-c2ccc(-c3ccc(-c4cnc([C@@H](NC(=O)c5cccc(F)c5)C(C)C)[nH]4)cc3)cc2)[nH]1 [Compound S-73] | >100
15 | CN(CC(F)(F)F)C(C)(C)C(=O)NC(c1nc(-c2ccc(-c3ccc(-c4c[nH]c(C(NC(=O)C(C)(C)N(C)CC(F)(F)F)C(C)(C)C)n4)cc3)cc2)c[nH]1)C(C)(C)C [Compound L-62] | >100
16 | CC(C)(C)[C@H](NC(=O)C1(c2ccc(Cl)cc2)CCC1)c1nc(-c2ccc(-c3ccc(-c4c[nH]c([C@@H](NC(=O)C5(c6ccc(Cl)cc6)CCC5)C(C)(C)C)n4)cc3)cc2)c[nH]1 [Compound N-57] | >100
17 | CC1(C(NC(=O)C(C)(C)C(O)C2CC2)c2nc(-c3ccc(-c4ccc(-c5c[nH]c(C(NC(=O)C(C)(C)C(O)C6CC6)C6(C)CC6)n5)cc4)cc3)c[nH]2)CC1 (mixture of isomers) [Compound N-150] | >100
18 | CC(C)(C)C(NC(=O)C1CCCO1)c1nc(-c2ccc(-c3ccc(-c4c[nH]c(C(NC(=O)C5CCCO5)C(C)(C)C)n4)cc3)cc2)c[nH]1 [Compound L-64] | >100
19 | CC(C)(C)[C@H](NC(=O)C1CC(=O)C1)c1nc(-c2ccc(-c3ccc(-c4c[nH]c([C@@H](NC(=O)C5CC(=O)C5)C(C)(C)C)n4)cc3)cc2)c[nH]1 [Compound W-171] | >100

Row | Compound | Fold-Synergistic 1a (Q30E) [fold]
20 | CC(C)N(CC(F)(F)F)C(=O)C(=O)N[C@H](c1nc(-c2ccc(-c3ccc(-c4c[nH]c([C@@H](NC(=O)C(=O)N(CC(F)(F)F)C(C)C)C(C)(C)C)n4)cc3)cc2)c[nH]1)C(C)(C)C [Compound W-66] | >100
21 | CC(C)(C)[C@H](NC(=O)C1(c2ccc(Cl)cc2)CC1)c1nc(-c2ccc(-c3ccc(-c4c[nH]c([C@@H](NC(=O)C5(c6ccc(Cl)cc6)CC5)C(C)(C)C)n4)cc3)cc2)c[nH]1 [Compound N-56] | >100
22 | CC(C)[C@H](NC(=O)c1ccc(C(F)(F)F)nc1)c1ncc(-c2ccc(-c3ccc(-c4cnc([C@@H](NC(=O)C(C)(C)C)C(C)C)[nH]4)cc3)cc2)[nH]1 [Compound Y-53] | >100
23 | CC1(C(=O)NC(c2nc(-c3ccc(-c4ccc(-c5c[nH]c(C(NC(=O)C6(C)CCCC(F)(F)CO6)C(C)(C)C)n5)cc4)cc3)c[nH]2)C(C)(C)C)CCCC(F)(F)CO1 (centres unmarked) [Compound Y-92] | >100
24 | COC(=O)N[C@H](C(=O)NC1(c2nc(-c3ccc(-c4ccc(-c5c[nH]c(C6(NC(=O)[C@@H](NC(=O)OC)C(C)C)CCC6)n5)cc4)cc3)c[nH]2)CCC1)C(C)C [Compound N-10] | <10
25 | CC(C)[C@H](NC(=O)c1nccn1C)c1ncc(-c2ccc(-c3ccc(-c4cnc([C@@H](NC(=O)c5nccn5C)C(C)C)[nH]4)cc3)cc2)[nH]1 [Compound S-105] | <10
26 | O=C(c1cncnc1)N1CCC[C@H]1c1ncc(-c2ccc(-c3ccc(-c4cnc([C@@H]5CCCN5C(=O)c5cncnc5)[nH]4)cc3)cc2)[nH]1 [Compound S-195] | <10
27 | CC(C)OC(C)(C)C(=O)N[C@H](c1ncc(-c2ccc(-c3ccc(-c4cnc([C@@H](NC(=O)C(C)(C)OC(C)C)C(C)C)[nH]4)cc3)cc2)[nH]1)C(C)C [Compound Y-29] | >100
28 | CC(C)[C@H](NC(=O)N(c1ccccc1)c1ccccc1)c1nc(-c2ccc(-c3ccc(-c4c[nH]c([C@@H](NC(=O)N(c5ccccc5)c5ccccc5)C(C)C)n4)cc3)cc2)c[nH]1 [Compound S-227] | >100
29 | COC1(C(=O)NC(c2nc(-c3ccc(-c4ccc(-c5c[nH]c(C(NC(=O)C6(OC)CCOC6)C(C)(C)C)n5)cc4)cc3)c[nH]2)C(C)(C)C)CCOC1 (mixture of isomers) [Compound N-158] | >100
30 | Cc1ccc(C)c(C(=O)N[C@H](c2ncc(-c3ccc(-c4ccc(-c5cnc([C@@H](NC(=O)c6cc(C)ccc6C)C(C)C)[nH]5)cc4)cc3)[nH]2)C(C)C)c1 [Compound S-71] | >100
31 | CC(C)[C@H](NC(=O)Cc1cccc2ccccc12)c1ncc(-c2ccc(-c3ccc(-c4cnc([C@@H](NC(=O)Cc5cccc6ccccc56)C(C)C)[nH]4)cc3)cc2)[nH]1 [Compound S-9] | >10
32 | CC(C)[C@H](NC(=O)C(C)(C)C)c1ncc(-c2ccc(-c3ccc(-c4cnc([C@@H](NC(=O)C(C)(C)C)C(C)C)[nH]4)c(OC(F)F)c3)cc2)[nH]1 [Compound Y-11] | >100
33 | CC(C)(C)OC(=O)NC1(C(=O)N[C@H](c2nc(-c3ccc(-c4ccc(-c5c[nH]c([C@@H](NC(=O)C6(NC(=O)OC(C)(C)C)CCC(=O)CC6)C(C)(C)C)n5)cc4)cc3)c[nH]2)C(C)(C)C)CCC(=O)CC1 [Compound W-233] | >100
34 | CC(C)C(=O)NC1(C(=O)N[C@H](c2nc(-c3ccc(-c4ccc(-c5c[nH]c([C@@H](NC(=O)C6(NC(=O)C(C)C)CCCCC6)C(C)(C)C)n5)cc4)cc3)c[nH]2)C(C)(C)C)CCCCC1 [Compound W-266] | >100
35 | O=C([C@@H]1C[C@H]1c1ccccc1)N1CCC[C@H]1c1ncc(-c2ccc(-c3ccc(-c4cnc([C@@H]5CCCN5C(=O)[C@@H]5C[C@H]5c5ccccc5)[nH]4)cc3)cc2)[nH]1 [Compound S-161] | >10
36 | CC(C)[C@H](NC(=O)CC1CCCC1)c1ncc(-c2ccc(-c3ccc(-c4cnc([C@@H](NC(=O)CC5CCCC5)C(C)C)[nH]4)cc3)cc2)[nH]1 [Compound S-3] | >100
37 | CC(C)(C)[C@H](NC(=O)C(C)(O)C1(C)CC1)c1nc(-c2ccc(-c3ccc(-c4c[nH]c([C@@H](NC(=O)C(C)(O)C5(C)CC5)C(C)(C)C)n4)cc3)cc2)c[nH]1 (single isomer, unassigned) [Compound L-93a] | >100
38 | CC1(O)CCC(C(=O)N[C@H](c2nc(-c3ccc(-c4ccc(-c5c[nH]c([C@@H](NC(=O)C6CCC(C)(O)CC6)C(C)(C)C)n5)cc4)cc3)c[nH]2)C(C)(C)C)CC1 (some centres unmarked) [Compound W-175] | >100

Reference: patent US20160158200A1, “Combinations of Hepatitis C Virus Inhibitors” (priority 2013, published 2016)
